# Where two headings read alike, the source gives them in different places.
# Experiments:
# Experiment in all cases: MIC, broth microdilution (CLSI), substance alone or ATB combined with compound at 4 or 8 μg/mL
# ECO 190317 = format: cell-based, E. coli; conditions: ECO 190317; for MIC: Escherichia coli
# Procedure, shortened: (§1)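 Per CLSI-M7-A7, MICs are determined in cation-adjusted Mueller-Hinton broth with a final inoculum of 5·10^5 CFU/mL. Plates incubate 16-20 h at 35° C in air and are read by eye. Fosfomycin assays carry 25 μg/ml glucose-6-phosphate.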
# ECO UFR39 = format: cell-based, E. coli; conditions: ECO UFR39
# Procedure, shortened: as §1
# KPN 6299 = format: cell-based, K. pneumoniae; conditions: for MIC: Klebsiella pneumoniae
# Procedure, shortened: as §1
# KPN BAA-1898 = format: cell-based, K. pneumoniae; conditions: KPN BAA-1898; for MIC: Klebsiella pneumoniae, BAA1898
# Procedure, shortened: as §1
# KPN UFR42 = format: cell-based, K. pneumoniae; conditions: KPN UFR42
# Procedure, shortened: as §1
# ECL P99 = format: cell-based, E. cloacae; conditions: ECL P99
# Procedure, shortened: as §1
# [1] = antibiotic alone, read-out: MIC ATB alone
smiles,measurement,setting,value
"COCC1=C(C(=O)O)N2C(=O)[C@@H](NC(=O)/C(=N\OC)c3csc(N)n3)[C@H]2SC1 [POD, Cefpodoxime, reference compound]",MIC ATB combined with Example 1 @8 μg/ml,ECO 190317; with Example 1 at 8 μg/ml,<0.031 µg/mL
same,MIC ATB combined with Example 7 @8 μgml,ECO 190317; with Example 7 at 8 μg/ml,<0.031 µg/mL
same,MIC ATB combined with Example 9 @4 μg/ml,ECO 190317; with Example 9 at 4 μg/ml,<0.031 µg/mL
same,MIC ATB combined with Example 11 @8 μg/ml,ECO 190317; with Example 11 at 8 μg/ml,<0.031 µg/mL
same,MIC ATB combined with Example 12 @8 μg/ml,ECO 190317; with Example 12 at 8 μg/ml,<0.031 µg/mL
same,MIC ATB combined with Example 13 @8 μg/ml,ECO 190317; with Example 13 at 8 μg/ml,<0.031 µg/mL
same,MIC ATB combined with Example 14 @8 μg/ml,ECO 190317; with Example 14 at 8 μg/ml,<0.031 µg/mL
same,MIC ATB combined with Example 15 @4 μgml,ECO 190317; with Example 15 at 4 μg/ml,<0.031 µg/mL
same,MIC ATB combined with Example 16 @4 μg/ml,ECO 190317; with Example 16 at 4 μg/ml,<0.031 µg/mL
same,MIC,ECO 190317; [1],> 512 µg/mL
same,MIC,"ECO 190317; substance alone, read-out: MIC",> 512 µg/mL
same,MIC ATB combined with Example 1 @8 μg/ml,ECO UFR39; with Example 1 at 8 μg/ml,<0.031 µg/mL
same,MIC ATB combined with Example 7 @8 μgml,ECO UFR39; with Example 7 at 8 μg/ml,<0.031 µg/mL
same,MIC ATB combined with Example 9 @4 μg/ml,ECO UFR39; with Example 9 at 4 μg/ml,<0.031 µg/mL
same,MIC ATB combined with Example 11 @8 μg/ml,ECO UFR39; with Example 11 at 8 μg/ml,<0.031 µg/mL
same,MIC ATB combined with Example 12 @8 μg/ml,ECO UFR39; with Example 12 at 8 μg/ml,<0.031 µg/mL
same,MIC ATB combined with Example 13 @8 μg/ml,ECO UFR39; with Example 13 at 8 μg/ml,<0.031 µg/mL
same,MIC ATB combined with Example 14 @8 μg/ml,ECO UFR39; with Example 14 at 8 μg/ml,<0.031 µg/mL
same,MIC ATB combined with Example 15 @4 μgml,ECO UFR39; with Example 15 at 4 μg/ml,<0.031 µg/mL
same,MIC ATB combined with Example 16 @4 μg/ml,ECO UFR39; with Example 16 at 4 μg/ml,<0.031 µg/mL
same,MIC,"ECO UFR39; Escherichia coli, antibiotic alone, read-out: MIC ATB alone",> 256 µg/mL
same,MIC,KPN 6299; [1],64 µg/mL
same,MIC,"KPN 6299; substance alone, read-out: MIC",64 µg/mL
same,MIC ATB combined with Example 1 @8 μg/ml,KPN 6299; with Example 1 at 8 μg/ml,0.25 µg/mL
same,MIC ATB combined with Example 7 @8 μgml,KPN 6299; with Example 7 at 8 μg/ml,0.25 µg/mL
same,MIC ATB combined with Example 9 @4 μg/ml,KPN 6299; with Example 9 at 4 μg/ml,<0.031 µg/mL
same,MIC ATB combined with Example 11 @8 μg/ml,KPN 6299; with Example 11 at 8 μg/ml,<0.031 µg/mL
same,MIC ATB combined with Example 12 @8 μg/ml,KPN 6299; with Example 12 at 8 μg/ml,<0.031 µg/mL
same,MIC ATB combined with Example 13 @8 μg/ml,KPN 6299; with Example 13 at 8 μg/ml,0.125 µg/mL
same,MIC ATB combined with Example 14 @8 μg/ml,KPN 6299; with Example 14 at 8 μg/ml,<0.031 µg/mL
same,MIC ATB combined with Example 15 @4 μgml,KPN 6299; with Example 15 at 4 μg/ml,<0.031 µg/mL
same,MIC ATB combined with Example 16 @4 μg/ml,KPN 6299; with Example 16 at 4 μg/ml,<0.031 µg/mL
same,MIC ATB combined with Example 1 @8 μg/ml,KPN BAA-1898; with Example 1 at 8 μg/ml,1 µg/mL
same,MIC ATB combined with Example 7 @8 μgml,KPN BAA-1898; with Example 7 at 8 μg/ml,2 µg/mL
same,MIC ATB combined with Example 9 @4 μg/ml,KPN BAA-1898; with Example 9 at 4 μg/ml,<0.031 µg/mL
same,MIC ATB combined with Example 11 @8 μg/ml,KPN BAA-1898; with Example 11 at 8 μg/ml,<0.031 µg/mL
same,MIC ATB combined with Example 12 @8 μg/ml,KPN BAA-1898; with Example 12 at 8 μg/ml,<0.031 µg/mL
same,MIC ATB combined with Example 13 @8 μg/ml,KPN BAA-1898; with Example 13 at 8 μg/ml,1 µg/mL
same,MIC ATB combined with Example 14 @8 μg/ml,KPN BAA-1898; with Example 14 at 8 μg/ml,<0.031 µg/mL
same,MIC ATB combined with Example 15 @4 μgml,KPN BAA-1898; with Example 15 at 4 μg/ml,<0.031 µg/mL
same,MIC ATB combined with Example 16 @4 μg/ml,KPN BAA-1898; with Example 16 at 4 μg/ml,<0.031 µg/mL
same,MIC,KPN BAA-1898; [1],> 512 µg/mL
same,MIC,"KPN BAA-1898; substance alone, read-out: MIC",> 512 µg/mL
same,MIC ATB combined with Example 1 @8 μg/ml,KPN UFR42; with Example 1 at 8 μg/ml,>32 µg/mL
same,MIC ATB combined with Example 7 @8 μgml,KPN UFR42; with Example 7 at 8 μg/ml,>32 µg/mL
same,MIC ATB combined with Example 9 @4 μg/ml,KPN UFR42; with Example 9 at 4 μg/ml,>32 µg/mL
same,MIC ATB combined with Example 11 @8 μg/ml,KPN UFR42; with Example 11 at 8 μg/ml,<0.031 µg/mL
same,MIC ATB combined with Example 12 @8 μg/ml,KPN UFR42; with Example 12 at 8 μg/ml,<0.031 µg/mL
same,MIC ATB combined with Example 13 @8 μg/ml,KPN UFR42; with Example 13 at 8 μg/ml,>32 µg/mL
same,MIC ATB combined with Example 14 @8 μg/ml,KPN UFR42; with Example 14 at 8 μg/ml,<0.031 µg/mL
same,MIC ATB combined with Example 15 @4 μgml,KPN UFR42; with Example 15 at 4 μg/ml,<0.031 µg/mL
same,MIC ATB combined with Example 16 @4 μg/ml,KPN UFR42; with Example 16 at 4 μg/ml,<0.031 µg/mL
same,MIC,"KPN UFR42; Klebsiella pneumoniae, antibiotic alone, read-out: MIC ATB alone",> 256 µg/mL
same,MIC ATB combined with Example 1 @8 μg/ml,ECL P99; with Example 1 at 8 μg/ml,<=0.031 μg/mL
same,MIC ATB combined with Example 7 @8 μgml,ECL P99; with Example 7 at 8 μg/ml,16 µg/mL
same,MIC ATB combined with Example 9 @4 μg/ml,ECL P99; with Example 9 at 4 μg/ml,<0.031 µg/mL

# — patent US20200024278A1, “COMPOSITION COMPRISING ANTIBIOTIC COMPOUND AND AN HETEROCYCLIC COMPOUND AND THEIR USE IN PREVENTING OR TREATING BACTERIAL INFECTIONS” (MUTABILIS, priority 2016, published 2020)
